Experimental data from patent US11352350B2, “IRAK degraders and uses thereof” (Kymera Therapeutics, Inc., priority 2018, dated 2022).
Read-outs that look alike come from different tables or passages of the source.

What was measured:
IL-6 = IL-6 secretion in hPBMC using R848 stimulation; assay type: cell-based, human; conditions: hPBMC, R848 as stim, t = 20 h
OCI-LY19 = OCI-LY19 viability, CTG; assay type: cell-based
U2932 = U2932 viability, CTG; assay type: cell-based
SU-DHL6 = SU-DHL6 viability, CTG; assay type: cell-based
SU-DHL2 = SU-DHL2 viability, CTG; assay type: cell-based
IRAK4 [1] = target: T1, IRAK4 (Homo sapiens (Human), UniProt Q9NWZ3); test: IRAK4 MSD degradation in OCI-LY10; assay type: cell-based; conditions: MSD
Outline: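 Remaining IRAK4 quantified by electrochemiluminescent MSD sandwich assay with two anti-IRAK4 antibodies. Compounds were dosed as 8 concentrations in 1:3 steps from a 1 to 10 μM final top on OCI-LY10 cells, incubated 4 to 24 h at 37° C. under 5% CO2. DC50 fitted with a three-parameter logistic curve.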

IRAK4 [2] = target: T1, IRAK4; test: IRAK4 WB degradation (DC50); assay type: cell-based
OCI-LY10 [3] = test: OCI-LY10 viability, CTG; assay type: cell-based
IRAK4 [4] = target: T1, IRAK4; test: hPBMC IRAK4 degradation flow assay; assay type: cell-based; conditions: hPBMC monocyte, 20 hr, flow assay; read-out: IRAK4 degradation in hPBMC monocyte at 20 hr: Average external Abs DC50
Outline: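 Thawed human PBMCs treated with 10-point, 5-fold compound dilutions (0.1% DMSO) at 37° C. for 20 hours or 4 hours. IRAK4 measured by flow MFI in CD14+ monocytes and CD14− lymphocytes, normalized to DMSO and 10 μM 20-hour control; DC50 and max degradation from 4-parameter logistic fit.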

IRAK4 [5] = target: T1, IRAK4; test: IRAK4 degradation in OCI-LY10 (DC50); assay type: cell-based
OCI-LY10 [6] = test: CTG Cell Viability Assay - OCI-LY10; assay type: cell-based, human; conditions: OCI-LY10, 4 days, read-out: CTG Cell Viability Assay - OCI-LY10: Average external-IC50
Outline: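 Viability read by CellTiter-Glo luminescence after 4 days at 37° C under 5% CO2 with compound (top 10 μM final, 1:3 steps, 9 doses, DMSO 0.2%). Three-parameter logistic fit gave IC50.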

IRAK4 [7] = target: T1, IRAK4; test: IRAK4 degradation in OCI-LY10 tumor xenograft; assay type: in vivo; conditions: for IRAK4 ↓ (% Control): OCI-LY10 tumor xenograft, sample time 24 h
OCI-LY10 tumor xenograft = test: OCI-LY10 tumor xenograft, tumor volume; assay type: in vivo; conditions: PO
AIOLOS [8] = target: T2, AIOLOS (Homo sapiens (Human), UniProt Q96SW2+Q9UKT9); test: AIOLOS degradation in OCI-LY10 (DC50); assay type: cell-based
IKAROS [9] = target: T3, IKAROS (Homo sapiens (Human), UniProt Q13422+Q96SW2); test: Ikaros degradation in OCI-LY10 tumor xenograft; assay type: in vivo; conditions: sample time 24 h
IKAROS [10] = target: T3, IKAROS; test: IKAROS degradation in OCI-LY10 (DC50); assay type: cell-based
AIOLOS [11] = target: T2, AIOLOS; test: Aiolos degradation in OCI-LY10 tumor xenograft; assay type: in vivo; conditions: sample time 24 h
IFIT1 = test: Interferon response IFIT1 in OCI-LY10 tumor xenograft; assay type: in vivo; conditions: sample time 24 h
IFIT3 = test: Interferon response IFIT3 in OCI-LY10 tumor xenograft; assay type: in vivo; conditions: sample time 24 h
OCI-LY3 = OCI-LY3 viability, CTG; assay type: cell-based; conditions: Homo sapiens, MYD88 MUT
[12] = OCI-LY10, 4 hrs, read-out: IRAK4 MSD degradation in OCI-LY10 at 4 hrs: Average external-Abs DC50
[13] = OCI-LY10, 24 hrs, read-out: IRAK4 MSD degradation in OCI-LY10 at 24 hrs: Average external-Abs DC50
[14] = read-out: IRAK4 Degradation in OCI-LY10, DC50
[15] = Homo sapiens, OCI-LY19, MYD88 WT, read-out: OCI-LY19 CTG IC50
[16] = Homo sapiens, U2932, MYD88 WT, read-out: U2932 CTG IC50
[17] = Homo sapiens, SU-DHL-6, MYD88 WT, read-out: SU-DHL6 CTG IC50
[18] = Homo sapiens, SU-DHL-2, MYD88 MUT, read-out: SU-DHL2 CTG IC50
[19] = Homo sapiens, OCI-Ly10, MYD88 MUT, read-out: OCI-LY10 CTG IC50
[20] = Homo sapiens, OCI-LY19, MYD88 WT Lines, read-out: OCI-LY19 Viability, CTG IC50
[21] = Homo sapiens, U2932, MYD88 WT Lines, read-out: U2932 Viability, CTG IC50
[22] = Homo sapiens, SU-DHL-6, MYD88 WT Lines, read-out: SU-DHL6 Viability, CTG IC50
[23] = Homo sapiens, SU-DHL-2, MYD88 Mutant Lines, read-out: SU-DHL2 Viability, CTG IC50
[24] = Homo sapiens, OCI-Ly10, MYD88 Mutant Lines, read-out: OCI-LY10 Viability, CTG IC50

T3 sequence (Q13422 whole entry): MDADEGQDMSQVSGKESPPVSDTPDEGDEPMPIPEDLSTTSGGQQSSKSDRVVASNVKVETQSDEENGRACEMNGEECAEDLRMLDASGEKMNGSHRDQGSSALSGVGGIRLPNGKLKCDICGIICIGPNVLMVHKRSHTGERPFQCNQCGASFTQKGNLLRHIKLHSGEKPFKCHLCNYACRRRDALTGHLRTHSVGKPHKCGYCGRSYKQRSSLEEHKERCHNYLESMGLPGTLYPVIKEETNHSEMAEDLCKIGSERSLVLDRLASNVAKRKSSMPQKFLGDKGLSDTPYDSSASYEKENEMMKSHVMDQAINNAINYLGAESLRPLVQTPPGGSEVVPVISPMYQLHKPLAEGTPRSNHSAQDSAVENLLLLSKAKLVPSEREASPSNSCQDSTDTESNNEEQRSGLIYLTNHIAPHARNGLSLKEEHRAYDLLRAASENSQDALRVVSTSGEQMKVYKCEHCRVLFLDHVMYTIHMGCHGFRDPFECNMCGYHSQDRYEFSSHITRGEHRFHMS
T3 sequence (Q96SW2 whole entry): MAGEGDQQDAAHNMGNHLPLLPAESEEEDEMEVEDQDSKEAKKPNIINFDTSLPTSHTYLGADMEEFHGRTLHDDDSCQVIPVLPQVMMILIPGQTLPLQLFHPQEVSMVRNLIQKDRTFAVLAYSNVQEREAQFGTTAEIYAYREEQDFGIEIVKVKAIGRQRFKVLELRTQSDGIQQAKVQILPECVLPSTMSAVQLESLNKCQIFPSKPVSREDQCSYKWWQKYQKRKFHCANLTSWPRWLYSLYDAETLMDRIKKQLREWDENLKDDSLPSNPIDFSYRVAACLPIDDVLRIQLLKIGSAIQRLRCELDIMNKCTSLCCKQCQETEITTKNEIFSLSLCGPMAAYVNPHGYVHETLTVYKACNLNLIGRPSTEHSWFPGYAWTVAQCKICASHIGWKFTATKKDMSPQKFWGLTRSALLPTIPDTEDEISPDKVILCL
T3 sequence (Q16531 whole entry partner): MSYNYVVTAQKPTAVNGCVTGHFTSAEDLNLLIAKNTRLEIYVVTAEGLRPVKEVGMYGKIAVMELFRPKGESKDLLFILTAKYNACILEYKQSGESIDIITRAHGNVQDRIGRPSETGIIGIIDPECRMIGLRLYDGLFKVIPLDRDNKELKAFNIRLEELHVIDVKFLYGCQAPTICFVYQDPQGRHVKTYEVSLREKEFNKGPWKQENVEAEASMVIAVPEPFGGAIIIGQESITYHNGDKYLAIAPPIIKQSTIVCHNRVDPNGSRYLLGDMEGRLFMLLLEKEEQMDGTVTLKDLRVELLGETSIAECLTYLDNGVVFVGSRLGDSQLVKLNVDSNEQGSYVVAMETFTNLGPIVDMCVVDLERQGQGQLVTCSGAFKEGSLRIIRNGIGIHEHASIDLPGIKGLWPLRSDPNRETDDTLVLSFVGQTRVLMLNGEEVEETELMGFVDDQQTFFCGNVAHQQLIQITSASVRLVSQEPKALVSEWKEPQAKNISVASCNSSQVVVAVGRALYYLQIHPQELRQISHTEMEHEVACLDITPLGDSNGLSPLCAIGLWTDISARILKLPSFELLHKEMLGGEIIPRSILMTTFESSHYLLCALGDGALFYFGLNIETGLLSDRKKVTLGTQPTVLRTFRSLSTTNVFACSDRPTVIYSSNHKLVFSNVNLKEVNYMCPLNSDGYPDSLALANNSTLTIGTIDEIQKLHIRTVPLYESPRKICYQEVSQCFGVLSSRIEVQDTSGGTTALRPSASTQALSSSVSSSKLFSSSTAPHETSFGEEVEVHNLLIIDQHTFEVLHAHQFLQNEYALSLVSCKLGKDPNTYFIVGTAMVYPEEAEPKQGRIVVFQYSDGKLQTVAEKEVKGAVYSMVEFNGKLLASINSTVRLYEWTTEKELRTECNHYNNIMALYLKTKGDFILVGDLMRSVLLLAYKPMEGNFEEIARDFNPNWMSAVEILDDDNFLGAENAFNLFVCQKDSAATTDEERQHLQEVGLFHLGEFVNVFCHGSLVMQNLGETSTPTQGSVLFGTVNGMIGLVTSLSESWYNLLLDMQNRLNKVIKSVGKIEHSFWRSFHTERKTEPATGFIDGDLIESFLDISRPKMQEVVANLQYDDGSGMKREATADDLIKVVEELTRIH
T2 sequence (Q9UKT9 whole entry): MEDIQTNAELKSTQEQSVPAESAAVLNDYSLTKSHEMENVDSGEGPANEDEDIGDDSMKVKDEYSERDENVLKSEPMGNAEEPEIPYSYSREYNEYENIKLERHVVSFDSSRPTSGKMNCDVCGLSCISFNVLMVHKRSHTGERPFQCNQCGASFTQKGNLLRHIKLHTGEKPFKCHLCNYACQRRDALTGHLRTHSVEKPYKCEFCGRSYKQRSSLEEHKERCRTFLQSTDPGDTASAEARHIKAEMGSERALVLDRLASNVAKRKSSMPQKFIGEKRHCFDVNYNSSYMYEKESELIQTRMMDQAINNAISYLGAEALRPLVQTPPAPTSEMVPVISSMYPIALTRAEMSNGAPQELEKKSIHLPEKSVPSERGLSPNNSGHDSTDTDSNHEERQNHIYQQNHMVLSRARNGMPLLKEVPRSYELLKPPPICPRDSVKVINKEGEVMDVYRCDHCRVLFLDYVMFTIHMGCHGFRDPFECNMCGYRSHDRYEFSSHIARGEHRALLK
T2 sequence (Q96SW2 whole entry): as the sequence (Q96SW2 whole entry) above
T2 sequence (Q16531 whole entry partner): as the sequence (Q16531 whole entry partner) above
T1 sequence (Q9NWZ3 whole entry): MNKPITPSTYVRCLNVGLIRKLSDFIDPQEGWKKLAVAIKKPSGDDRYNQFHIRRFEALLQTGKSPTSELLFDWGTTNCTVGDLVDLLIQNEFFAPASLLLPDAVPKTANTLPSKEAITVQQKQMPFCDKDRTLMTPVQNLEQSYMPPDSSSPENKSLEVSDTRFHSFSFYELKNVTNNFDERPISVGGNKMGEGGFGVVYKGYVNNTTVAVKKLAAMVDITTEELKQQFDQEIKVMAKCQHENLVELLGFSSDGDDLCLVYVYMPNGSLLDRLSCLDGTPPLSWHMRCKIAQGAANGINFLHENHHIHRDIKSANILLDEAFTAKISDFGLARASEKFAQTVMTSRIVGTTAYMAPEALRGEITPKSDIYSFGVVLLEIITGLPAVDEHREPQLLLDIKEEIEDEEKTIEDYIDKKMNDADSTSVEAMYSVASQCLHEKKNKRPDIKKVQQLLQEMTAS

SMILES	DC50 (IRAK4 [1]; [12])	DC50 (IRAK4 [1]; [13])	DC50 (IRAK4 [2])	DC50 (IRAK4 [4])	DC50 (IRAK4 [5]; [14])	DC50 (IRAK4 [5]; read-out: IRAK4 OCI-LY10 DC50)	DC50 (AIOLOS [8])	IC50 (OCI-LY19; [15])	IC50 (U2932; [16])	IC50 (SU-DHL6; [17])	IC50 (SU-DHL2; [18])	IC50 (OCI-LY10 [3]; [19])	DC50 (IKAROS [10])	IC50 (OCI-LY10 [6]; Homo sapiens, OCI-Ly10, 96 h)	IC50 (OCI-LY3)	IC50 (OCI-LY19; [20])	IC50 (U2932; [21])	IC50 (SU-DHL6; [22])	IC50 (SU-DHL2; [23])	IC50 (OCI-LY10 [3]; [24])	further results
Cn1c(=O)n([C@H]2CCC(=O)NC2=O)c2cccc(CCCOC3CCN(CC4CCC(n5cc(NC(=O)c6cnn7ccc(N8CCOCC8)nc67)c(C(F)F)n5)CC4)CC3)c21 (stereo partly drawn) [I-257, N-[3-(difluoromethyl)-1-[4-[[4-[3-[1-[(3S)-2,6-dioxo-3-piperidyl]-3-methyl-2-oxo-benzimidazol-4-yl]propoxy]-1-piperidyl]methyl]cyclohexyl]pyrazol-4-yl]-5-morpholino-pyrazolo[1,5-a]pyrimidine-3-carboxamide]	< 10 nM	< 10 nM	3 nM	< 10 nM	5 nM	5 nM	–	–	–	–	–	–	–	–	–	–	–	–	–	–	IC50 (IL-6): < 1 nM; IC50 (OCI-LY19; MYD88 WT Lines, read-out: OCI-LY19 Viability, CTG IC50): 4700 nM; IC50 (OCI-LY19; MYD88 WT, read-out: OCI-LY19 CTG IC50): 4700 nM; IC50 (U2932; MYD88 WT Lines, read-out: U2932 Viability, CTG IC50): > 10000 nM; IC50 (U2932; MYD88 WT, read-out: U2932 CTG IC50): 10000 nM; IC50 (SU-DHL6; MYD88 WT Lines, read-out: SU-DHL6 Viability, CTG IC50): 5600 nM; IC50 (SU-DHL6; MYD88 WT, read-out: SU-DHL6 CTG IC50): 5600 nM; IC50 (SU-DHL2; MYD88 MUT, read-out: SU-DHL2 CTG IC50): 6900 nM; IC50 (SU-DHL2; MYD88 Mutant Lines, read-out: SU-DHL2 Viability, CTG IC50): 6900 nM; IC50 (OCI-LY10 [3]; MYD88 MUT, read-out: OCI-LY10 CTG IC50): 1200 nM; IC50 (OCI-LY10 [3]; MYD88 Mutant Lines, read-out: OCI-LY10 Viability, CTG IC50): 1200 nM; IC50 (OCI-LY10 [6]): > 1000 nM; IRAK4 degradation in OCI-LY10 tumor xenograft (IRAK4 [7]; PO, BID (FIG. 18)): 90%; Regression of OCI-LY10 tumor xenograft (OCI-LY10 tumor xenograft; BID, 150 mg/kg (FIG. 18)): without regression; Regression of OCI-LY10 tumor xenograft (OCI-LY10 tumor xenograft; BID, 150 mg/kg (FIG. 18), listed as 1-257): without causing regression
O=C1CCC(N2C(=O)c3cccc(NCCCOC4CCN(C[C@H]5CC[C@H](n6cc(NC(=O)c7cnn8ccc(N9CCOCC9)nc78)c(C(F)F)n6)CC5)CC4)c3C2=O)C(=O)N1 (stereo partly shown) [I-208]	10 to 100 nM	–	130 nM	–	–	20 nM	< 3 nM	1700 nM	1800 nM	833 nM	366 nM	36 nM	3 nM	< 50 nM	3000 nM	–	–	–	–	–	Ikaros ↓ (% Control) (IKAROS [9]; 24 mg/kg PO QD): 46.3 % Control; Ikaros ↓ (% Control) (IKAROS [9]; 72 mg/kg PO QD): 71.0 % Control; Ikaros ↓ (% Control) (IKAROS [9]; 240 mg/kg PO QD): 81.2 % Control; Aiolos ↓ (% Control) (AIOLOS [11]; 24 mg/kg PO QD): 30.9 % Control; Aiolos ↓ (% Control) (AIOLOS [11]; 72 mg/kg PO QD): 62.4 % Control; Aiolos ↓ (% Control) (AIOLOS [11]; 240 mg/kg PO QD): 68.6 % Control; Interferon Response IFIT1 Increase (Fold) (IFIT1; 24 mg/kg PO QD): >24.4 Fold; Interferon Response IFIT1 Increase (Fold) (IFIT1; 72 mg/kg PO QD): >41.5 Fold; Interferon Response IFIT1 Increase (Fold) (IFIT1; 240 mg/kg PO QD): >38.7 Fold; Interferon Response IFIT3 Increase (Fold) (IFIT3; 24 mg/kg PO QD): >43.1 Fold; Interferon Response IFIT3 Increase (Fold) (IFIT3; 72 mg/kg PO QD): >64.0 Fold; Interferon Response IFIT3 Increase (Fold) (IFIT3; 240 mg/kg PO QD): >59.7 Fold; IRAK4 ↓ (% Control) (IRAK4 [7]; 24 mg/kg PO QD): 57.8 % Control; IRAK4 ↓ (% Control) (IRAK4 [7]; 72 mg/kg PO QD): 78.7 % Control; IRAK4 ↓ (% Control) (IRAK4 [7]; 240 mg/kg PO QD): 86.5 % Control; Regression of OCI-LY10 tumor xenograft (OCI-LY10 tumor xenograft; single agent, QD, 24, 72, and 240 mg/kg (FIG. 21)): with regression; Regression of OCI-LY10 tumor xenograft (OCI-LY10 tumor xenograft; single agent, QD, 24, 72, and 240 mg/kg (FIG. 21), listed as 1-208): drives regression
CN(CCCOCCNc1cccc2c1C(=O)N(C1CCC(=O)NC1=O)C2=O)C[C@H]1CC[C@H](n2cc(NC(=O)c3coc(-c4ccnc(NCC5CC5)c4)n3)c(C(F)F)n2)CC1 (stereo partly shown) [I-168]	10 to 100 nM	< 10 nM	78 nM	–	–	20 nM	5 nM	430 nM	410 nM	1900 nM	64 nM	31 nM	5 nM	< 50 nM	290 nM	–	–	–	–	–	–
CN(C[C@H]1CC[C@H](n2cc3cc(NC(=O)c4cccc(C(F)(F)F)n4)c(C(C)(C)O)cc3n2)CC1)C1CCN(Cc2cccc3c2n(C)c(=O)n3C2CCC(=O)NC2=O)CC1 (stereo partly shown) [I-191]	< 10 nM	–	–	< 10 nM	4 nM	–	–	–	–	–	–	–	–	> 1000 nM	–	> 10000 nM	> 10000 nM	5600 nM	> 10000 nM	> 10000 nM	IC50 (IL-6; Homo sapiens, 20 h): 1 to 10 nM
CC[C@@H]1CC(=O)N[C@@H]1COc1ncc(C#C[C@H]2CC[C@H](CN3CCC(OCCCc4cccc5c4n(C)c(=O)n5C4CCC(=O)NC4=O)CC3)CC2)c2cc(C(N)=O)c(OC)cc12 (stereo partly shown) [I-229]	10 to 100 nM	10 to 100 nM	–	–	26 nM	–	–	–	–	–	–	–	–	> 1000 nM	–	> 10000 nM	> 10000 nM	4100 nM	> 10000 nM	3500 nM	–
